Measurements reported in PMC8551148, “Identification and characterization of deschloro-chlorothricin obtained from a large natural product library targeting aurora A kinase in multiple myeloma” (Investigational New Drugs, 2020).

Target: T1, Aurora A kinase (AURKA) (Homo sapiens, UniProt O14965)
T1 sequence (O14965 1-403): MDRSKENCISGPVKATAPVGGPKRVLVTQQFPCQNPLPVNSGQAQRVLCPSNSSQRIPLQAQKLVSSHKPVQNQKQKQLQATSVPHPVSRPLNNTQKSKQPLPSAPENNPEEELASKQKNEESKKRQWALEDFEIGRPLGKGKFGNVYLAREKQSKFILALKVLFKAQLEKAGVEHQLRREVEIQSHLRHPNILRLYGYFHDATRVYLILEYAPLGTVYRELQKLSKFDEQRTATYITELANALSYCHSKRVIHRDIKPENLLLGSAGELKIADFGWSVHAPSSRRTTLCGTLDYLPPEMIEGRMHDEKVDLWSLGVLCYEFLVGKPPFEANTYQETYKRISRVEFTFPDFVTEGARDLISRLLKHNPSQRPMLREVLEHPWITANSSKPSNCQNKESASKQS
Assay: microscale thermophoresis with RED-NHS labelled purified AURKA ([…])
Format: binding

COc1cccc(C)c1C(=O)O[C@@H]1C[C@H](O[C@H]2[C@H](O)C[C@H](O[C@@H]3CCC[C@H]4[C@H]3C=C[C@@H]3CCCC/C=C\[C@H]5C=C(C(=O)O)[C@@H](C)C[C@@]56OC(=O)C(=C6O)OC(=O)[C@@]34C)O[C@@H]2C)O[C@H](C)[C@H]1O [Compound 5, deschloro-chlorothricin]
Kd: 8.17 µM
